Measurements reported in patent US11760744B2, “Fused ring compounds” (Genentech, Inc., priority 2018, dated 2023).

Experiments:
[1] = molecular target: T1, K-Ras G12C mutant protein (Homo sapiens, UniProt P01116, G12C); assay: K-Ras G12C HTRF assay; assay type: biochemical; details: Table 1; unit or assay not given; several values in one cell
T1 construct: K-Ras G12C (residues 2-188) and SOS1 (residues 564-1049) had N-terminal 6-His; made in house; host or cells: E. coli
Description: In the above definition of R^2, the electrophilic moiety that is capable of forming a covalent bond with a cysteine residue is determined via K-Ras G12C-alkylation studies and Homogeneous Time Resolved Fluorescence (HTRF) assays. The G12C mutation of the K-Ras gene is a change in amino acid from glycine to cysteine at the 12th amino acid. The compounds according to the present disclosure were discovered using the HTRF assay and the K-Ras G12C-alkylation assay, as further detailed elsewhere herein below, and then NMR spectroscopy was later used to validate the specificity with which the molecule was attaching to G12C.

K-Ras G12C [2] = molecular target: T2, K-Ras G12C (Homo sapiens, UniProt P01116, G12C); assay: K-Ras G12C, SOS1, Raf RBD HTRF assay for inhibition of GTP exchange; assay type: biochemical; set-up: K-Ras G12C (residues 2-188) and SOS1 (residues 564-1049) had N-terminal 6-His; made in house; host or cells: E. coli; details: 18 hours preincubation with K-Ras G12C at room temperature; SOS1-mediated GTP exchange
Procedure, shortened: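 After 18 h at room temperature with compound, SOS1 (1.25 nM final) started exchange to GTP (150 μM final). C-Raf RBD, Tb-anti-FLAG and D2-anti-his (50, 1 and 12.5 nM) were then added. The 665/615 nm HTRF ratio was read after 2 h; buffer was HEPES/NaCl, 1 mM MgCl2, BSA, Tween-20 and DTT.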
Target sequence in this assay (P01116 2-188 isoform P01116-2 G12C): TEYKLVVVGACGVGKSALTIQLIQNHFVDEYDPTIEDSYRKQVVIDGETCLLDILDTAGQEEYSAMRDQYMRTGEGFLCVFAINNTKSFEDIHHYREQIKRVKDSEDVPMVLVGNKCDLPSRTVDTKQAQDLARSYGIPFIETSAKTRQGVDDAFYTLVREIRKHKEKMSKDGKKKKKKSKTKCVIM

K-Ras G12C [3] = molecular target: T2, K-Ras G12C; assay: Western blot assay for in cell alkylation of K-Ras G12C (HCC1171 cells); assay type: cell-based; set-up: endogenous in cells; host or cells: HCC1171; details: 18 hours at 37° C., 7 point dose response
Procedure, shortened: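 HCC1171 cells exposed to compounds for 18 h at 37° C, lysed, and analysed by SDS-PAGE/western blot with anti-K-Ras antibody and fluorescent secondary. Alkylated K-Ras separated by band shift; % alkylation = FI(alkylated)/(FI(alkylated)+FI(unalkylated))×100, IC50 from 7-point dose response.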
Target sequence in this assay (P01116 1-188 isoform P01116-2 G12C): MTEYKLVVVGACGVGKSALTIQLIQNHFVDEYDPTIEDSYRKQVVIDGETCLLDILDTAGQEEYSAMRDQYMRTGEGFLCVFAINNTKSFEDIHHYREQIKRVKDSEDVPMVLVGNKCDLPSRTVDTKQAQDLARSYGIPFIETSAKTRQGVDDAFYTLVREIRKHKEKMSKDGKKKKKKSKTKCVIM

T1 sequence (P01116 2-188 isoform P01116-2 G12C): as the sequence (P01116 2-188 isoform P01116-2 G12C) above

| SMILES | IC50 [1] | IC50 (K-Ras G12C [2]) | EC50 (K-Ras G12C [3]) |
| --- | --- | --- | --- |
| C=CC(=O)N1CCN(c2nc(OCCCN3CCOCC3)nc3c2CCC(c2cc(O)cc4ccccc24)C3)C(C)C1 (centres unmarked) [Example 53, 1-(4-(7-(3-hydroxynaphthalen-1-yl)-2-(3-morpholinopropoxy)-5,6,7,8-tetrahydroquinazolin-4-yl)-3-methylpiperazin-1-yl)prop-2-en-1-one] | 22 nM |  |  |
| C=CC(=O)N1CCN(c2ncnc3c2CCC(c2cc(O)cc4ccccc24)C3)CC1 (centres unmarked) [Example 43, 1-[4-[7-(3-hydroxy-1-naphthyl)-5,6,7,8-tetrahydroquinazolin-4-yl]piperazin-1-yl]prop-2-en-1-one] | 200 nM | 200 nM |  |
| C=CC(=O)N1CCC(C#N)(c2nc(OCC3CCCN3C)nc3c2CCC(c2cc(O)cc4ccccc24)C3)CC1 (centres unmarked) [Example 7, 1-acryloyl-4-(7-(3-hydroxynaphthalen-1-yl)-2-((1-methylpyrrolidin-2-yl)methoxy)-5,6,7,8-tetrahydroquinazolin-4-yl)piperidine-4-carbonitrile] | 87 nM |  |  |
| C=CC(=O)N1CCN(c2nc(OCC3CCCN3C)nc3c2CCCC3)CC1 (centres unmarked) [Example 45, 1-(4-(2-((1-methylpyrrolidin-2-yl)methoxy)-5,6,7,8-tetrahydroquinazolin-4-yl)piperazin-1-yl)prop-2-en-1-one] | > 50000 nM |  |  |
| COc1ccc(CN(Cc2ccc(OC)cc2)c2cc(C)c(I)c(C3Cc4nc(OCC5CCCN5C)nc(N5CCN(C(=O)OC(C)(C)C)CC5C)c4CC3C)c2F)cc1 (centres unmarked) [Example 14, tert-butyl 4-(7-(3-(bis(4-methoxybenzyl)amino)-2-fluoro-6-iodo-5-methylphenyl)-6-methyl-2-((1-methylpyrrolidin-2-yl)methoxy)-5,6,7,8-tetrahydroquinazolin-4-yl)-3-methylpiperazine-1-carboxylate] | > 50000 nM |  |  |
| CN1CCCC1COc1nc2c(c(N3CCN(C(=O)/C=C/CNC45CC(C4)C5)C(CC#N)C3)n1)CCC(c1cccc3ccccc13)C2 (centres unmarked) [Example 48, (E)-2-(1-(4-(bicyclo[1.1.1]pentan-1-ylamino)but-2-enoyl)-4-(2-((1-methylpyrrolidin-2-yl)methoxy)-7-(naphthalen-1-yl)-5,6,7,8-tetrahydroquinazolin-4-yl)piperazin-2-yl)acetonitrile] | 11 nM |  |  |
| C=CC(=O)N1CCN(c2nc(OCCC3CCCN3C)nc3c2CCC(c2cc(O)cc4ccccc24)C3)CC1 (centres unmarked) [Example 52, 1-(4-(7-(3-hydroxynaphthalen-1-yl)-2-(2-(1-methylpyrrolidin-2-yl)ethoxy)-5,6,7,8-tetrahydroquinazolin-4-yl)piperazin-1-yl)prop-2-en-1-one] | 51 nM |  |  |
| C=CC(=O)N1CCN(c2nc(OCC3CCCN3C)nc3c2CCC2(CCCCC2)C3)CC1 (centres unmarked) [Example 25, 1-(4-(2′-((1-methylpyrrolidin-2-yl)methoxy)-5′,8′-dihydro-6′H-spiro[cyclohexane-1,7′-quinazolin]-4′-yl)piperazin-1-yl)prop-2-en-1-one] | 5400 nM |  |  |
| C=CC(=O)N1CCN(c2nc(OCC3CCCN3C)nc3c2CCC(c2cc(O)cc4ccccc24)C3)CC1 (centres unmarked) [Example 49, 1-(4-(7-(3-hydroxynaphthalen-1-yl)-2-((1-methylpyrrolidin-2-yl)methoxy)-5,6,7,8-tetrahydroquinazolin-4-yl)piperazin-1-yl)prop-2-en-1-one] | 23 nM |  |  |
| C=CC(=O)N1CC(C)N(c2nc(OCC3CCCN3C)nc3c2CCC(c2cc(O)cc4ccccc24)C3)C(C)C1 (centres unmarked) [Example 56, 1-(4-(7-(3-hydroxynaphthalen-1-yl)-2-((1-methylpyrrolidin-2-yl)methoxy)-5,6,7,8-tetrahydroquinazolin-4-yl)-3,5-dimethylpiperazin-1-yl)prop-2-en-1-one] | 73 nM |  |  |
| C=CC(=O)N1CCN(c2nc(OCC3CCC(=O)N3)nc3c2CCC(c2cc(O)cc4ccccc24)C3)C(C)C1 (centres unmarked) [Example 55, 5-(((4-(4-acryloyl-2-methylpiperazin-1-yl)-7-(3-hydroxynaphthalen-1-yl)-5,6,7,8-tetrahydroquinazolin-2-yl)oxy)methyl)pyrrolidin-2-one] | 1400 nM |  |  |
| C=CC(=O)Oc1cc(C2CCc3c(nc(OCC4CCCN4C)nc3N3CCN(C(=O)C=C)C(CC#N)C3)C2)c2ccccc2c1 (centres unmarked) [Example 59, 4-(4-(4-acryloyl-3-(cyanomethyl)piperazin-1-yl)-2-((1-methylpyrrolidin-2-yl)methoxy)-5,6,7,8-tetrahydroquinazolin-7-yl)naphthalen-2-yl acrylate] | 250 nM |  |  |
| C=CC(=O)N1CCN(c2nc(OCC3CCCN3C)nc3c2CC(C)C(c2c(C)ccc4[nH]ncc24)C3)CC1 (centres unmarked) [Example 18, 1-(4-(6-methyl-7-(5-methyl-1H-indazol-4-yl)-2-((1-methylpyrrolidin-2-yl)methoxy)-5,6,7,8-tetrahydroquinazolin-4-yl)piperazin-1-yl)prop-2-en-1-one] | 24 nM |  |  |
| C=CC(=O)N1CCN(c2ncnc3c2CC(C)C(c2nc(N)cc(C)c2C(F)(F)F)C3)CC1 (single isomer, unassigned) [Example 1, 1-(4-(7-(6-amino-4-methyl-3-(trifluoromethyl)pyridin-2-yl)-6-methyl-5,6,7,8-tetrahydroquinazolin-4-yl)piperazin-1-yl)prop-2-en-1-one] | > 50000 nM |  |  |
| C=CC(=O)N1CCN(c2nc(OCc3cn(C)cn3)nc3c2CCC(c2cc(O)cc4ccccc24)C3)C(C)C1 (centres unmarked) [Example 54, 1-(4-(7-(3-hydroxynaphthalen-1-yl)-2-((1-methyl-1H-imidazol-4-yl)methoxy)-5,6,7,8-tetrahydroquinazolin-4-yl)-3-methylpiperazin-1-yl)prop-2-en-1-one] | 470 nM |  |  |
| C#CC[C@@H]1CN(c2nc(OC[C@@H]3CCCN3C)nc3c2C[C@@H](C)[C@H](c2cccc4c2CCC4)C3)CCN1C(=O)C=C (single isomer, unassigned) [Example 40d] |  | 29 nM | 1000 nM |
| C=CC(=O)N1CCN(c2nc(OCC3CCC(=O)N3)nc3c2CCC(c2cc(O)cc4ccccc24)C3)[C@@H](C)C1 (stereo partly drawn) [Example 55a, 5-(((4-((S)-4-acryloyl-2-methylpiperazin-1-yl)-7-(3-hydroxynaphthalen-1-yl)-5,6,7,8-tetrahydroquinazolin-2-yl)oxy)methyl)pyrrolidin-2-one] |  | 1400 nM | 6700 nM |
| CN1CCC[C@H]1COc1nc2c(c(N3CCN(C(=O)/C=C/CF)[C@@H](CC#N)C3)n1)CC[C@@H](c1cc(O)cc3ccccc13)C2 (single isomer, unassigned) [Example 62e] |  | 660 nM | 450 nM |
| C=CC(=O)Oc1cc(C2CCc3c(nc(OC[C@@H]4CCCN4C)nc3N3CCN(C(=O)C=C)C(CC#N)C3)C2)c2ccccc2c1 (stereo partly drawn) [Example 59a, 4-(4-(4-acryloyl-3-(cyanomethyl)piperazin-1-yl)-2-(((S)-1-methylpyrrolidin-2-yl)methoxy)-5,6,7,8-tetrahydroquinazolin-7-yl)naphthalen-2-yl acrylate] |  | 250 nM | 29 nM |
| C=CC(=O)N1CCN(c2nc(OC[C@@H]3CCCN3C)nc3c2CC(C)C(c2c(C)ccc4[nH]ncc24)C3)CC1 (stereo partly drawn) [Example 18a, 1-(4-(6-methyl-7-(5-methyl-1H-indazol-4-yl)-2-(((S)-1-methylpyrrolidin-2-yl)methoxy)-5,6,7,8-tetrahydroquinazolin-4-yl)piperazin-1-yl)prop-2-en-1-one] |  | 24 nM | 280 nM |
| C=CC(=O)N1CCN(c2nc(OC[C@@H]3CCCN3C)nc3c2CC[C@H](c2cc(O)cc4ccccc24)C3)C[C@H]1CC#N (single isomer, unassigned) [Example 58c] |  | 29 nM | 340 nM |
| C=CC(=O)Oc1cc(C2CCc3c(nc(OCC4CCCN4C)nc3N3CCN(C(=O)C=C)CC3)C2)c2ccccc2c1 (centres unmarked) [Example 50, 4-(4-(4-acryloylpiperazin-1-yl)-2-((1-methylpyrrolidin-2-yl)methoxy)-5,6,7,8-tetrahydroquinazolin-7-yl)naphthalen-2-yl acrylate] | 160 nM |  |  |
| C=CC(=O)N1CCN(c2nc(OC[C@@H]3CCCN3C)nc3c2C[C@H](C)[C@@H](c2cc(O)cc4ccccc24)C3)[C@@H](C)C1 (single isomer, unassigned) [Example 22a] |  | 20 nM | 100 nM |
| C=CC(=O)N1CCN(c2nc(OC[C@@H]3CCCN3C)nc3c2CCC(c2cc(O)cc4ccccc24)C3)[C@@H](CO)C1 (single isomer, unassigned) [Example 29a] |  | 530 nM | 9300 nM |
| C=C(F)C(=O)N1CCN(c2nc(OC[C@@H]3CCCN3C)nc3c2CCC(c2cccc4ccccc24)C3)C[C@@H]1CC#N (single isomer, unassigned) [Example 47d] |  | < 10 nM | 30 nM |
